Consider nine compounds from publication PMC3908770 (Journal of medicinal chemistry, 2013).

The structures appear in SMILES notation. “Also recorded” adds a separate entry of the source. Like-named read-outs stand apart in the source and are kept apart here.

One data set deals with mGlu5 W784A (Rattus norvegicus, UniProt P31424, W784A). Description: Progressive fold-shift at mGlu5 point mutant, operational model of allosterism.
For data set [1] the following is noted: rat; cited from earlier work.
The conditions of data set [2]: cited from earlier work; for Seizure activity / liability in vivo: rodents.
The conditions of data set [3]: human; cited from earlier work.
For data set [4], the target named is T1, rat mGlu5 (Rattus norvegicus, UniProt P31424). As to conditions: cited from earlier work.
In data set [5] the test system is panel of 68 GPCRs, ion channels and transporters. As to the kind of experiment: Off-target panel screen. As to conditions: 10 µM, 68 targets. In kind it is binding.
Data set [6] concerns the target T1, rat mGlu5. As to conditions: operational model of allosterism.
For data set [7], the target named is T1, rat mGlu5. As to conditions: increasing concentrations.
Data set [8] deals with Schaffer collateral – CA1 (SC-CA1) synapse. As to the kind of experiment: Long-term depression. As to conditions: compound on its own, rat hippocampus.
In a further data set the target is mGlu5 S808A (Rattus norvegicus, UniProt P31424, S808A). Description: Progressive fold-shift at mGlu5 point mutant, operational model of allosterism.
The nature of data set [9]: Amphetamine induced hyperlocomotion, in vivo model of psychosis. As to conditions: high dose, preliminary.
The conditions of data set [10]: Cmax minimum active dose AHL versus Cmax minimum adverse effect dose; cited from earlier work.
Data set [11] has as its system Schaffer collateral – CA1 (SC-CA1) synapse. As to conditions: cited from earlier work.
In a further data set the test system is CA3 pyramidal neurons. As to conditions: hippocampal preparations; prior studies; cited from earlier work.
The conditions of data set [12]: cited from earlier work.

T1 sequence (P31424 21-1203): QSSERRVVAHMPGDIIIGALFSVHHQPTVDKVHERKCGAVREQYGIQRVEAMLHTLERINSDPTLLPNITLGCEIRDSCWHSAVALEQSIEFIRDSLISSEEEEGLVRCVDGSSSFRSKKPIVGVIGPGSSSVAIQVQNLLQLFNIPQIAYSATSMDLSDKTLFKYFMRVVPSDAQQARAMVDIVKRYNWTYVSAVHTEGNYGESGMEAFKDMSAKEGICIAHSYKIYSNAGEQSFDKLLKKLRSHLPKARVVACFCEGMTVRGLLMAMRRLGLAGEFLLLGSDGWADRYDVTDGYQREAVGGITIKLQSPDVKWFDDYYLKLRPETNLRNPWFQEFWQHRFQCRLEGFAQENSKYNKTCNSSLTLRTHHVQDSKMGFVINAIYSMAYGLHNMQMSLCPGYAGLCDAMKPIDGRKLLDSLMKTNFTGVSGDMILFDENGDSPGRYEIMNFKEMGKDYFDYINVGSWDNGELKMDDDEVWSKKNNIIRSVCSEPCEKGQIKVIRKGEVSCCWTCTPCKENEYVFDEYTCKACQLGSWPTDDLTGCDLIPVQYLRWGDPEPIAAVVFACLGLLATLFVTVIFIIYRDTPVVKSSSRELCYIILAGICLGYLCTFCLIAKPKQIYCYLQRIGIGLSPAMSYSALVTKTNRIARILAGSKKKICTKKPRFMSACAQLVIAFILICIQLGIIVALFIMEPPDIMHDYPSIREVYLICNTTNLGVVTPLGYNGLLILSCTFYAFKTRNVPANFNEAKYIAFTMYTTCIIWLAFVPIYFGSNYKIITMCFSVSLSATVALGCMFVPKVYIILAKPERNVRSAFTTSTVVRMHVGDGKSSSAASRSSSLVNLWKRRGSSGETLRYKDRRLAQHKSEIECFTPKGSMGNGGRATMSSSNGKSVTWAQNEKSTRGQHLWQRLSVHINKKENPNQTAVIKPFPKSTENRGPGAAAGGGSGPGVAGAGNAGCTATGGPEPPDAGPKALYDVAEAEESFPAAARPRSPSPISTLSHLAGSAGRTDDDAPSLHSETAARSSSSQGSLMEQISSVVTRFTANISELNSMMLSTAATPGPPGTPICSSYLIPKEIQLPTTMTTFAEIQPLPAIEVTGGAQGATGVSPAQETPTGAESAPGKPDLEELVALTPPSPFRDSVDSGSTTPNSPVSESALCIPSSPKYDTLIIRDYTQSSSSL
Chain of mGlu5 W784A (P31424 21-1203 W784A): as the sequence (P31424 21-1203) above, with W764A counted along it
Chain of mGlu5 S808A (P31424 21-1203 S808A): as the sequence (P31424 21-1203) above, with S788A counted along it

In the case of `C[C@@H](NC(=O)c1ccc(C#Cc2ccccn2)cn1)C(C)(C)O` [Compound 31i, (R)-N-(3-Hydroxy-3-methylbutan-2-yl)-5-(pyridin-2-ylethynyl)picolinamide], at mGlu5 W784A, the “Effect of W784A mutation” value is “gain in allosteric agonist activity”.

Take `O=C(NC1CCC1)c1ccc(C#Cc2cccc(F)c2)cn1` [Compound 21]: the Plasma protein binding in data set [1] and in [3] was greater than 99 % bound throughout. Further, the fu plasma in data set [1] and in data set [3] was less than 1% each time. Moreover, the “Seizure liability in animal models” value in data set [2] is reported as “possesses a seizure liability”. Also, on rat mGlu5 [4], the “Agonist activity in mGlu5 low-expressing cell line” value was “demonstrates agonist activity”.

On to `CC1(NC(=O)c2ccc(C#Cc3cccc(F)c3)cn2)COC1` [Compound 38t, 5-((3-Fluorophenyl)ethynyl)-N-(3-methyloxetan-3-yl)picolinamide], for which the Off target activity result in data set [5] was “no significant off target activity”. The “Efficacy cooperativity factor (logβ) between glutamate and modulator” value at rat mGlu5 [6] stood at 0.34. In addition, on rat mGlu5 [6] (progressive fold-shift), the “Predicted affinity (log value)” value is given as −6.81. In addition, the “Inhibition of [^3H]methoxyPEPy binding” value at rat mGlu5 [7] is “complete inhibition”. In addition, the “Induction of LTD at SC-CA1 synapse” value in data set [8] is given as “no effect; also recorded: does not induce LTD”. Also, the “Effect of S808A mutation” value at mGlu5 S808A is recorded as “NAM switch”. In data set [9], the Behavioral disturbances result was “no overt behavioral disturbances”. In addition, the “Reversal of amphetamine induced hyperlocomotion” value in data set [9] (data not shown) is on record as “robust reversal”.

Turning to `O=C1c2ccc(F)cc2CCC2CC[C@@H](c3noc(-c4ccc(F)cn4)n3)CN12` (stereo partly shown) [Compound 5PAM916], the Therapeutic index in data set [10] is on record as 18 fold.

Take `C[C@@H](NC(=O)c1ccc(C#Cc2cccc(F)c2)cn1)C(C)(C)O` [Compound 19, (R)-5-((3-Fluorophenyl)ethynyl)-N-(3-hydroxy-3-methylbutan-2-yl)picolinamide]: the “Seizure activity / liability in vivo” value in data set [2] is “causes seizure activity”. Further, the “Induction of LTD at SC-CA1 synapse” value in data set [11] is “induces LTD”. Moreover, the “Epileptiform activity in CA3 pyramidal neurons” value in the data set on CA3 pyramidal neurons is reported as “induction of epileptiform activity”. Moreover, the “Allosteric agonism in mGlu5 cell line with low receptor density” value on rat mGlu5 [4] is “ago-PAM activity”.

In the case of `C[C@@H]1CC[C@H](c2noc(-c3ccc(F)cn3)n2)CN1C(=O)c1ccccc1` [Compound 5PAM523], in [10], the Therapeutic index is 2 fold.

As for `O=C(NC1CCC1)c1ccc(C#Cc2cccc(F)c2)nc1` [Compound 26], the Plasma protein binding in [12] is on record as 98.9%.

Turning to `O=C(N[C@H]1C[C@H](O)C1)c1ccc(C#Cc2cccc(F)c2)cn1` [Compound 22], on rat mGlu5 [4], the “Agonist activity in mGlu5 low-expressing cell line” value is “significant ago-PAM activity”.

With `O=C(c1ccc(C#Cc2cccc(F)c2)nc1)N1CCC(O)CC1` [Compound 20], the “Seizure activity / liability in vivo” value in data set [2] is recorded as “did not display a seizure liability”. Besides, the “Allosteric agonism in mGlu5 cell line with low receptor density” value at rat mGlu5 [4] is “devoid of agonism”.
